Patent US20230165873A1, “Methods of Use for Single Molecule Compounds Providing Multi-Target Inhibition to Treat Covid 19” (priority 2020, published 2023)
Where two headings read alike, the source gives them in different places.

Assays:
BRD4-1 = biological target: T1, BRD4-1 (Homo sapiens, UniProt O60885); assay: BRD4-1 in vitro inhibition; format: binding
T1 construct: BRD4-1
Procedure: (§1) The kinase or bromodomain inhibitory activity of a compound of the invention can be determined by routine methods known to the skilled artisan without undue experimentation, or by procuring relevant analysis by a commercial vendor offering such services. […] In vivo, PI3K inhibition can be determined from target tissue biopsies by standard tissue processing in which cells are disrupted and Western Blot analysis is performed to determine the presence or absence of pAKT (substrate of PI3K) relative to a control sample. PI3K inhibition assays and BTK inhibition assays are known in the art and can be procured commercially through vendors such as Reaction Biology (Malvern, PA). The activity of a compound of the invention as an inhibitor of a bromodomain-containing protein, such as a BET protein, including BRD2, BRD3, BRD4, and/or BRDT, or an isoform or mutant thereof, may be determined in vitro, in vivo, or in a cell line. In vitro assays include assays that determine inhibition of bromodomain-containing proteins. Alternatively, inhibitor binding may be determined by running a competition experiment where a provided compound is incubated with a bromodomain-containing protein, such as a BET protein bound to known ligands, labeled or unlabeled. In vitro bromodomain inhibition assays can be performed using Alpha Screen Technology (Perkin Elmer Life and Analytical Sciences, Shelton, CT). In vivo bromodomain inhibition can be determined indirectly by evaluating the amount of a protein whose gene transcription is influenced or controlled by the bromodomain protein, for example, MYCN protein transcription is controlled by BRD4 (J.E. Delmore et al., Cell 2011, 146, 904-917; A. Puissant, Cancer Discov. 2013, 3, 308-323).

BRD4-2 = biological target: T2, BRD4-2 (Homo sapiens, UniProt O60885); assay: BRD4-2 in vitro inhibition; format: binding
T2 construct: BRD4-2
Procedure: as §1

PI3K alpha = PI3K alpha (Homo sapiens, UniProt P42336); assay: PI3K alpha in vitro inhibition; format: biochemical
Procedure: as §1

PI3K beta = PI3K beta (Homo sapiens, UniProt P42338); assay: PI3K beta in vitro inhibition; format: biochemical
Procedure: as §1

PI3K gamma = PI3K gamma (Homo sapiens, UniProt P48736); assay: PI3K gamma in vitro inhibition; format: biochemical
Procedure: as §1
(§2) IC50 inhibition data against the indicated targets were determined for compounds of the invention using standard in vitro assays (Tables 8 and 9).

BTK = BTK (Homo sapiens, UniProt Q06187); assay: BTK in vitro inhibition; format: biochemical
Procedure: as §1, §2

BTK C481S = BTK C481S (Homo sapiens, UniProt Q06187, C481S); assay: BTK C481S in vitro inhibition; format: biochemical
Procedure: as §1, §2

PI3K delta = PI3K delta (Homo sapiens, UniProt O00329); assay: PI3K delta in vitro inhibition; format: biochemical
Procedure: as §1, §2

CDK4 cyclinD1 = CDK4 cyclinD1 (Homo sapiens, UniProt P11802); assay: CDK4 cyclinD1 in vitro inhibition; format: biochemical
Procedure: as §1, §2

CDK6 cyclinD1 = CDK6 cyclinD1 (Homo sapiens, UniProt Q00534); assay: CDK6 cyclinD1 in vitro inhibition; format: biochemical
Procedure: as §1, §2

Syk = Syk (Homo sapiens, UniProt P43405); assay: Syk in vitro inhibition; format: biochemical
Procedure: as §1, §2

[1] = read-out: IC50 inhibition PI3K gamma

Chain of PI3K beta (P42338 whole entry): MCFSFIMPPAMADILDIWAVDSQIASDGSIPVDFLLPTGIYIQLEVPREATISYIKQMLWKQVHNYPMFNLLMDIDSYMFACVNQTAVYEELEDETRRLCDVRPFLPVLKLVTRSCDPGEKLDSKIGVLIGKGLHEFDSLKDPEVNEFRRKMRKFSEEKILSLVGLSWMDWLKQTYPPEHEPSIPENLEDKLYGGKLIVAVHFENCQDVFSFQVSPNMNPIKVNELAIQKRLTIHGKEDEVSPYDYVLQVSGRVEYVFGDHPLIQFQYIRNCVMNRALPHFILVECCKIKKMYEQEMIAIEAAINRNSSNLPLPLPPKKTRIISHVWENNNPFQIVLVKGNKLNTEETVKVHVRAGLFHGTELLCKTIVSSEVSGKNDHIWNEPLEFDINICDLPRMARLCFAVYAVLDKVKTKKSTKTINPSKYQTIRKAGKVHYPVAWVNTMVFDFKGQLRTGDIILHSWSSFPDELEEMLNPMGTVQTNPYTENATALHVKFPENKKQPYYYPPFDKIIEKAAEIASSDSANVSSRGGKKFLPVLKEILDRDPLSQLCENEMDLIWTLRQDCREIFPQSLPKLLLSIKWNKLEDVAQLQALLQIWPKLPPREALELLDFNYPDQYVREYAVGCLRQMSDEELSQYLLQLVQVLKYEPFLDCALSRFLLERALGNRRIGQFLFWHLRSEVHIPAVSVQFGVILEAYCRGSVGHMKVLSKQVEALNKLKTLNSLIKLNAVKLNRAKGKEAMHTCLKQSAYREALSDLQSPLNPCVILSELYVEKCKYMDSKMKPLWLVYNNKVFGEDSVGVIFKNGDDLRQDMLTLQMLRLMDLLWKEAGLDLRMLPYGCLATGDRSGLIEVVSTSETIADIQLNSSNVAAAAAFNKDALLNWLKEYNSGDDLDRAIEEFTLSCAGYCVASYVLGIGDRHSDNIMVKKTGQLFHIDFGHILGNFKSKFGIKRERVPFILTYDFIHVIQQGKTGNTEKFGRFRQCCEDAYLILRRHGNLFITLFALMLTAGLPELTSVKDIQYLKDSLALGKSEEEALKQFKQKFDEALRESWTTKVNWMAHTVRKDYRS
Chain of PI3K beta (P27986 whole entry partner): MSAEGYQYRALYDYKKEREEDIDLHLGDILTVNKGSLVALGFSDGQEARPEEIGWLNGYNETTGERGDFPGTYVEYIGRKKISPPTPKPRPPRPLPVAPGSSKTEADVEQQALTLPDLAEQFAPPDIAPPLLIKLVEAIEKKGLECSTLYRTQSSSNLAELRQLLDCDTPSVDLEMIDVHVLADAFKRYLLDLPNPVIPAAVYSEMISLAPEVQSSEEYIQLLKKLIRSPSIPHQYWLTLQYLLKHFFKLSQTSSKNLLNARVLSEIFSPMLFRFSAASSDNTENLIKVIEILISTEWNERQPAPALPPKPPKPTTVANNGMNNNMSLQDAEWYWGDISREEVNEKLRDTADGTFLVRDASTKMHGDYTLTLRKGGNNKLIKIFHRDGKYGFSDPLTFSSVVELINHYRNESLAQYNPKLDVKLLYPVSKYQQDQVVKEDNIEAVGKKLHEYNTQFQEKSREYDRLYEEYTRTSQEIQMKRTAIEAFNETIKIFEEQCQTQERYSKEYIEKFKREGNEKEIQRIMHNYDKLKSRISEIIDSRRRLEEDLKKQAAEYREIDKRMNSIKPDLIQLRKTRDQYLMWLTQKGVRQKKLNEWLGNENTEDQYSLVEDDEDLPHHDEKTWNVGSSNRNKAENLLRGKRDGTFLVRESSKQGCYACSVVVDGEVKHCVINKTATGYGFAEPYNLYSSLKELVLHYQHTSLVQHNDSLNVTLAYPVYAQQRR
Chain of PI3K delta (O00329 whole entry): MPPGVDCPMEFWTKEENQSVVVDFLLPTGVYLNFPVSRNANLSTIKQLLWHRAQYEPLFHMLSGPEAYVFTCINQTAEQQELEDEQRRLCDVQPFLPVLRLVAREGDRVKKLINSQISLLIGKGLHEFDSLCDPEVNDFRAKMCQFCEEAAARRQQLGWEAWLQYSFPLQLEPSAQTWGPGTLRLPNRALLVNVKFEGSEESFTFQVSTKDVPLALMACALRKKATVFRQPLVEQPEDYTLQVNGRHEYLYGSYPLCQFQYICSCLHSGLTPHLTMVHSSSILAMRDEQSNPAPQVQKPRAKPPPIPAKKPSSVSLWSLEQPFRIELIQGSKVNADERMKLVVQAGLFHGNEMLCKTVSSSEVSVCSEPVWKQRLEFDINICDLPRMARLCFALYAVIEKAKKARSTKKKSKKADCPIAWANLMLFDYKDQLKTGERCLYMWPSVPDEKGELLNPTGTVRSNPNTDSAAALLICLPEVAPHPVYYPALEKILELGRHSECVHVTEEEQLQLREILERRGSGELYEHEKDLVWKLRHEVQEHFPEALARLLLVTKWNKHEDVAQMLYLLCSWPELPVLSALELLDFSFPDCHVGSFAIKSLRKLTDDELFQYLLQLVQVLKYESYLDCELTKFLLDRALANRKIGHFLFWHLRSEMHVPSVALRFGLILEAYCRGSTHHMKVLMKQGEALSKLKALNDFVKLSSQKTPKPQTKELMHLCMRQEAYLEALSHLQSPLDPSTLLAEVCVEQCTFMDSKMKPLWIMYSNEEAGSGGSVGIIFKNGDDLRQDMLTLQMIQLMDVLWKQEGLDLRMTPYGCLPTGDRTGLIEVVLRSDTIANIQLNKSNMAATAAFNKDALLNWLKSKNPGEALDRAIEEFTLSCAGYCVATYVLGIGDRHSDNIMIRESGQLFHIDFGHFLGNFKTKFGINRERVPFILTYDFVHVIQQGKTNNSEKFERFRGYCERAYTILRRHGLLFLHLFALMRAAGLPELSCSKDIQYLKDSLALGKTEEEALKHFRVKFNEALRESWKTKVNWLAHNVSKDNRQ
Chain of PI3K delta (P27986 whole entry partner): as the sequence (P27986 whole entry partner) above
Chain of CDK6 cyclinD1 (Q00534 whole entry): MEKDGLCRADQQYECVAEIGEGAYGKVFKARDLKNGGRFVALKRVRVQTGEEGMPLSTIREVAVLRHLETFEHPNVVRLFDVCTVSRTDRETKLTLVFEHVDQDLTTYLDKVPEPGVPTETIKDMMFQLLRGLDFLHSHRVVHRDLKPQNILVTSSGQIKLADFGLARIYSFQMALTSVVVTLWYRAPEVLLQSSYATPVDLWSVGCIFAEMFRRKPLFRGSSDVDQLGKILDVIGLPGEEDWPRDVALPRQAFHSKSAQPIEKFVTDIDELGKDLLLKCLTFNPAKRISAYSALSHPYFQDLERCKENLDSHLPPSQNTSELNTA
Chain of CDK6 cyclinD1 (P24385 whole entry partner): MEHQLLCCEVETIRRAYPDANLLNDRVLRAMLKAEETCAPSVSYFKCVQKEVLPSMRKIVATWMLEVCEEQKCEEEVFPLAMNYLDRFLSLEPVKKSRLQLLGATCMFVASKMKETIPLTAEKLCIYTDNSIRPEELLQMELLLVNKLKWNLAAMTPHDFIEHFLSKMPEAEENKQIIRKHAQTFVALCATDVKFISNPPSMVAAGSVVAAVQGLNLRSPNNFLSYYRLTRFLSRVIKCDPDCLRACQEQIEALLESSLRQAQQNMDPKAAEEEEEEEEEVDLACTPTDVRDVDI
Chain of CDK4 cyclinD1 (P11802 whole entry): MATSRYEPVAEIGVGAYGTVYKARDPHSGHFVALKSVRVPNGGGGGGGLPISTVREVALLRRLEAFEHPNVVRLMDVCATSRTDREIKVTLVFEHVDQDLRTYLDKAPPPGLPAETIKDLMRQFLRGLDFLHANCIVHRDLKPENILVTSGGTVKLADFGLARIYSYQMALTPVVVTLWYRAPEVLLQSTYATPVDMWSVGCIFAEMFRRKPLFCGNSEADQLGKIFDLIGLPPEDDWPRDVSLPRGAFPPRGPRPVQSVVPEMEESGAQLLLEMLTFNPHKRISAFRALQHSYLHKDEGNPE
Chain of CDK4 cyclinD1 (P24385 whole entry partner): as the sequence (P24385 whole entry partner) above
Chain of PI3K gamma (P48736 whole entry): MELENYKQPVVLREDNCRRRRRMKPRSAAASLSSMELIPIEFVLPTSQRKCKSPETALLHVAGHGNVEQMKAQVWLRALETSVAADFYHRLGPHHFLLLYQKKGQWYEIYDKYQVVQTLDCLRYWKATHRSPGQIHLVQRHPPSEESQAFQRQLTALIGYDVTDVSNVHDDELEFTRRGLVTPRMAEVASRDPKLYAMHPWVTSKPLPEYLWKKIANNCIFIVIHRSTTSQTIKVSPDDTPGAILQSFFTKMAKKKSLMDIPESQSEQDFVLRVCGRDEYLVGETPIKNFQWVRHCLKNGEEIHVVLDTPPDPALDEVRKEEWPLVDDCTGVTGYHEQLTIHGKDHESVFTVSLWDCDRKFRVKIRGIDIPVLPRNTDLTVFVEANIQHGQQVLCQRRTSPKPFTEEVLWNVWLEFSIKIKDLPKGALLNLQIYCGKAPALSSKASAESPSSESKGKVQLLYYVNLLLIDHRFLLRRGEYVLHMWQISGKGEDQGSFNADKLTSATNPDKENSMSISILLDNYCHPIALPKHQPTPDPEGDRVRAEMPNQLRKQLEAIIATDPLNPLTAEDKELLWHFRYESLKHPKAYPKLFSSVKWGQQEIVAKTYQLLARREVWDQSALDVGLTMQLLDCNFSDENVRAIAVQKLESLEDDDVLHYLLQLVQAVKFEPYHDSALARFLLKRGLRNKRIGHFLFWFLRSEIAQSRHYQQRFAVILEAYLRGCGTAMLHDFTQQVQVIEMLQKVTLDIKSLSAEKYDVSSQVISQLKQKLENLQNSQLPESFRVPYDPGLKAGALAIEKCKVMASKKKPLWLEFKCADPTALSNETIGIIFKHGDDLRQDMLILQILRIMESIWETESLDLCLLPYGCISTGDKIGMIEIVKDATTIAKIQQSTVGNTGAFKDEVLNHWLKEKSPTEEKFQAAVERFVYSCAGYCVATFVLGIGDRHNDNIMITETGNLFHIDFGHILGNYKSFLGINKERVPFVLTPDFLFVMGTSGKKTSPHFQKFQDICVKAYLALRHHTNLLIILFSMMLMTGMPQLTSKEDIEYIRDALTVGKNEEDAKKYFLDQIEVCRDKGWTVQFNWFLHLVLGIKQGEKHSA

Structure (SMILES)	IC50 (BRD4-1) [nM]	IC50 (BRD4-2) [nM]	IC50 (PI3K alpha) [nM]	IC50 (PI3K beta) [nM]	IC50 (PI3K gamma; [1]) [nM]	IC50 (BTK) [nM]	IC50 (BTK C481S) [nM]	IC50 (PI3K delta) [nM]	IC50 (CDK4 cyclinD1) [nM]	IC50 (CDK6 cyclinD1) [nM]	IC50 (Syk) [nM]	IC50 (PI3K gamma; IC50 inhibition PI3K gamma) [nM]
C=CC(=O)Nc1cccc(-c2csc3c(=O)cc(N4CCOCC4)oc23)c1 [Compound 31]	500 to 1000	1000 to 10000	< 500	< 500	1000 to 10000	500 to 1000	> 45000	–	–	–	–	–
Cc1nn(-c2ccnc(Nc3ccc(-c4csc5c(=O)cc(N6CCOCC6)oc45)cc3)n2)cc1CN(C)CCO [Compound 59]	1000 to 10000	1000 to 10000	1000 to 10000	–	10000 to 45000	–	–	1000 to 10000	1000 to 10000	1000 to 10000	500 to 1000	–
C/C=C(/C)C(=O)N1CCOc2ccc(-c3csc4c(=O)cc(N5CCOCC5)oc34)cc21 [Compound 37]	500 to 1000	500 to 1000	< 500	< 500	500 to 1000	10000 to 45000	> 45000	–	–	–	–	–
Cc1nn(-c2ccnc(Nc3ccc(-c4csc5c(=O)cc(N6CCNCC6)oc45)cc3)n2)cc1CN1CC(O)C1 [Compound 53]	10000 to 45000	> 45000	1000 to 10000	–	> 45000	–	–	1000 to 10000	1000 to 10000	< 500	< 500	–
C/C=C(\C)C(=O)N1CCOc2ccc(-c3csc4c(=O)cc(N5CCOCC5)oc34)cc21 [Compound 38]	< 500	500 to 1000	< 500	< 500	1000 to 10000	> 45000	> 45000	–	–	–	–	–
O=c1cc(N2CCOCC2)oc2c(C#Cc3ccsc3)csc12 [Compound 5-1]	10000 to 45000	10000 to 45000	< 500	–	< 500	–	–	< 500	–	–	–	–
Cc1nc2c(F)cc(-c3nc(Nc4ccc(-c5csc6c(=O)cc(N7CCOCC7)oc56)cc4)ncc3F)cc2n1C(C)C [Compound 25-1]	> 45000	> 45000	10000 to 45000	–	> 45000	–	–	1000 to 10000	< 500	< 500	–	–
C=CS(=O)(=O)N(C)c1cc(-c2csc3c(=O)cc(N4CCOCC4)oc23)ccc1OC [Compound 48]	< 500	< 500	< 500	< 500	< 500	< 500	> 45000	–	–	–	–	–
C/C=C/C(=O)N1CCOc2ccc(-c3csc4c(=O)cc(N5CCOCC5)oc34)cc21 [Compound 39]	< 500	< 500	< 500	< 500	1000 to 10000	10000 to 45000	> 45000	–	–	–	–	–
COc1ccc(C#Cc2csc3c(=O)cc(N4CCOCC4)oc23)cc1 [Compound 5-2]	500 to 1000	1000 to 10000	< 500	–	–	–	–	< 500	–	–	–	500 to 1000
C=CS(=O)(=O)Nc1cccc(-c2csc3c(=O)cc(N4CCOCC4)oc23)c1 [Compound 46]	< 500	< 500	< 500	< 500	< 500	< 500	> 45000	–	–	–	–	–
C=CC(=O)N1CCOc2ccc(-c3csc4c(=O)cc(N5CCOCC5)oc34)cc21 [Compound 32]	< 500	< 500	< 500	< 500	< 500	< 500	10000 to 45000	–	–	–	–	–
C=CS(=O)(=O)N(CCS(=O)(=O)N(c1cc(-c2csc3c(=O)cc(N4CCOCC4)oc23)ccc1OC)S(=O)(=O)C=C)c1cc(-c2csc3c(=O)cc(N4CCOCC4)oc23)ccc1OC [Compound 51]	1000 to 10000	< 500	< 500	< 500	500 to 1000	1000 to 10000	10000 to 45000	–	–	–	–	–
C=CC(=O)Nc1ccc(-c2csc3c(=O)cc(N4CCOCC4)oc23)cc1 [Compound 30]	1000 to 10000	< 500	< 500	< 500	500 to 1000	10000 to 45000	> 45000	–	–	–	–	–
